Earlier results on one molecule are cited in PubChem BioAssay AID1259410 (Chemical Carcinogenesis Research Information System (CCRIS), 2018).

In the series the test system is rodent tumor promotion studies, tumor incidence. In words: CCRIS tumor promotion studies.

In the case of `CCO`, the outcome is, setting by setting: (Carcinogen: 1,2-DIMETHYLHYDRAZINE [540-73-8], Doses [Carcinogen]: 21 MG/KG WEEKLY FOR 18 WKS, Doses [Promoter]: 1.23 G/KG ADDED TO DRINKING WATER DAILY FOR 25-27 WKS, Route [Carcinogen]: SUBCUTANEOUS, Route [Promoter]: ORAL (DRINKING WATER), Species: RAT, Strain/Sex: SPRAGUE-DAWLEY/MALE, FEMALE) “negative”; (Carcinogen: 1,2-DIMETHYLHYDRAZINE, 540-73-8, Doses [Carcinogen]: 30 MG/KG BW 1/WK FOR 4 WK, Doses [Promoter]: 0, 6.6% OF LIQUID DIET BEGINNING 4 WK PRIOR TO CARCINOGEN TREATMENT LIQUID DIETS SUSPENDED FOR 3 WK DURING CARCINOGEN TR, Route [Carcinogen]: SUBCUTANEOUS, Route [Promoter]: ORAL, Species: RAT, Strain/Sex: SPRAGUE-DAWLEY/MALE) “rectum: tumors”; (Carcinogen: 4-(METHYLNITROSAMINO)-1-(3-PYRIDYL)-1-BUTANONE, 64091-91-4, Doses [Carcinogen]: 0, 50 MG/KG IN DISTILLED WATER ADMINISTERED INTRATRACHEALLY TO MOTHERS ON DAY 15 OF GESTATION, Doses [Promoter]: 10% IN DRINKING WATER ADMINISTERED IN DRINKING WATER TO MOTHERS ON DAYS 5 THROUGH 16 OF PREGNANCY (STUDY DURATION: 48 WK, Route [Carcinogen]: TRANSPLACENTAL, Route [Promoter]: TRANSPLACENTAL, Species: HAMSTER, Strain/Sex: SYRIAN/FEMALE) “nasal cavity: tumor; pancreas: tumor; adrenal gland: tumor”; (Carcinogen: 4-(METHYLNITROSAMINO)-1-(3-PYRIDYL)-1-BUTANONE, 64091-91-4, Doses [Carcinogen]: 0, 50 MG/KG IN DISTILLED WATER ADMINISTERED INTRATRACHEALLY TO MOTHERS ON DAY 15 OF GESTATION, Doses [Promoter]: 10% IN DRINKING WATER ADMINISTERED IN DRINKING WATER TO MOTHERS ON DAYS 5 THROUGH 16 OF PREGNANCY (STUDY DURATION: 48 WK, Route [Carcinogen]: TRANSPLACENTAL, Route [Promoter]: TRANSPLACENTAL, Species: HAMSTER, Strain/Sex: SYRIAN/MALE) “pancreas: tumor; adrenal gland: tumor”; (Carcinogen: 4-(METHYLNITROSAMINO)-1-(3-PYRIDYL)-1-BUTANONE, 64091-91-4, Doses [Carcinogen]: 20 MMOL/KG (TOTAL DOSE) 3/WK FOR 4 WK, Doses [Promoter]: 0, 7% (V/V) IN LIQUID DIET FOR 50 WK BEGINNING 1 WK POST CARCINOGEN TREATMENT (STUDY DURATION: 55 WK), Route [Carcinogen]: GAVAGE, Route [Promoter]: ORAL, Species: RAT, Strain/Sex: F344/MALE) “esophagus: tumor; oral cavity: tumor; lung: tumor”; (Carcinogen: 7,12-DIMETHYLBENZ[A]ANTHRACENE, 57-97-6, Doses [Carcinogen]: 1% PAINTED ON RIGHT BUCCAL POUCH 1/2 D FOR 1 WK, Doses [Promoter]: 0, 5% IN LIQUID DIET BEGINNING 1 WK POST CARCINOGEN TREATMENT AND CONTINUING FOR 35 WK (STUDY DURATION: 35 WK), Route [Carcinogen]: MUCOUS MEMBRANE, Route [Promoter]: ORAL, Species: HAMSTER, Strain/Sex: SYRIAN/MALE) “buccal pouch: epidermoid carcinoma”. Also, the outcome was “liver: hepatocellular carcinoma” (Carcinogen: 17ALPHA-ETHYNYLESTRADIOL, 57-63-6, NORETHINDRONE ACETATE, 51-98-9, Carcinogen: 17ALPHA-ETHYNYLESTRADIOL, 57-63-6, NORETHINDRONE ACETATE, 51-98-9, Doses [Carcinogen]: 0.075 MG EE AND 6 MG NA IN 0.5 ML OLIVE OIL 1/D FOR 12 MO, Doses [Promoter]: 0, 10% IN DRINKING WATER 5 D/WK FOR 12 MO (STUDY DURATION: 12 MO), Route [Carcinogen]: GAVAGE, GAVAGE, Route [Promoter]: ORAL, Species: RAT, Strain/Sex: WISTAR/FEMALE); “esophagus: papilloma or carcinoma” (Carcinogen: DIETHYLNITROSAMINE, 55-18-5, Doses [Carcinogen]: 33, 50 PPM IN DRINKING WATER FOR 8 WK, Doses [Promoter]: 10% IN DRINKING WATER FOR 8 WK ADMINISTERED WITH CARCINOGEN (STUDY DURATION: 104 WK), Route [Carcinogen]: ORAL, Route [Promoter]: ORAL, Species: RAT, Strain/Sex: F344/MALE); “stomach: squamous cell carcinoma (33% vs 30%); adenocarcinoma (17% vs 15%); both” (Carcinogen: Diethylnitrosamine, 55-18-5, Doses [Carcinogen]: 40 mg/l for 4 consecutive d/wk for 180 days, study duration 180 d, Doses [Promoter]: 6%, 3 d /wk for 180 d, study duration 180 d, Route [Carcinogen]: Oral (drinking water), Route [Promoter]: Oral (drinking water), Species: Mouse, Strain/Sex: CF1/Female (16, 47/Group)); “large intestine: adenoma, adenocarcinoma” (Carcinogen: METHYLAZOXYMETHANOL ACETATE, 592-62-1, Doses [Carcinogen]: 25 MG/KG IN SALINE 1/WK FOR 2 WK, Doses [Promoter]: 0.10% IN DRINKING WATER FOR 393 D BEGINNING 1 WK POST CARCINOGEN DOSE (STUDY DURATION: 414 D), Route [Carcinogen]: INTRAPERITONEAL, Route [Promoter]: ORAL, Species: RAT, Strain/Sex: ACI/MALE); “thymus: lymphoma” (Carcinogen: N6-(METHYLNITROSO)ADENOSINE, 21928-82-5, Doses [Carcinogen]: 180 MG/KG 3/WK FOR 12 WK, Doses [Promoter]: 0, 15% 3/WK FOR 12 WK ADMINISTERED WITH CARCINOGEN (STUDY DURATION: 18 MO), Route [Carcinogen]: GAVAGE, Route [Promoter]: GAVAGE, Species: MOUSE, Strain/Sex: SWISS/FEMALE); “esophagus: tumor; oral cavity: tumor; lung: tumor” (Carcinogen: N'-NITROSONORNICOTINE, 16543-55-8, Doses [Carcinogen]: 40 MMOL/KG (TOTAL DOSE) 3/WK FOR 4 WK, Doses [Promoter]: 0, 7% (V/V) IN LIQUID DIET FOR 50 WK BEGINNING 1 WK POST CARCINOGEN TREATMENT (STUDY DURATION: 55 WK), Route [Carcinogen]: GAVAGE, Route [Promoter]: ORAL, Species: RAT, Strain/Sex: F344/MALE).
